Experimental data from patent US9000159B2 (Glenmark Pharmaceuticals, S.A., priority 2009, dated 2015).

Biological target: T1, Human TRPA1 (Homo sapiens, UniProt O75762)
T1 construct: expressed in transfected cells; host or cells: CHO cells
Experiment: 45Calcium uptake assay: inhibition of AITC induced cellular uptake of radioactive calcium
Assay type: cell-based
Details: AITC (30 μM) induced 45Ca uptake, Human TRPA1 expressing CHO cells; for inhibition at 1 µM: read-out: Percentage inhibition at 1.0 μM; for inhibition at 10 µM: read-out: Percentage inhibition at 10.0 μM; for IC50: read-out: Human IC50 value (range)
Summary of the method: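 CHO cells stably expressing human TRPA1 (~50,000/well) preincubated 10 min with compound (0.5% DMSO, medium with 0.1% BSA, 1.8 mM CaCl2), then 30 μM AITC plus 5 μCi/ml 45Ca2+ for 3 min. Lysate radioactivity counted by scintillation; IC50 by nonlinear regression of % maximal uptake.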

T1 sequence (O75762 whole entry): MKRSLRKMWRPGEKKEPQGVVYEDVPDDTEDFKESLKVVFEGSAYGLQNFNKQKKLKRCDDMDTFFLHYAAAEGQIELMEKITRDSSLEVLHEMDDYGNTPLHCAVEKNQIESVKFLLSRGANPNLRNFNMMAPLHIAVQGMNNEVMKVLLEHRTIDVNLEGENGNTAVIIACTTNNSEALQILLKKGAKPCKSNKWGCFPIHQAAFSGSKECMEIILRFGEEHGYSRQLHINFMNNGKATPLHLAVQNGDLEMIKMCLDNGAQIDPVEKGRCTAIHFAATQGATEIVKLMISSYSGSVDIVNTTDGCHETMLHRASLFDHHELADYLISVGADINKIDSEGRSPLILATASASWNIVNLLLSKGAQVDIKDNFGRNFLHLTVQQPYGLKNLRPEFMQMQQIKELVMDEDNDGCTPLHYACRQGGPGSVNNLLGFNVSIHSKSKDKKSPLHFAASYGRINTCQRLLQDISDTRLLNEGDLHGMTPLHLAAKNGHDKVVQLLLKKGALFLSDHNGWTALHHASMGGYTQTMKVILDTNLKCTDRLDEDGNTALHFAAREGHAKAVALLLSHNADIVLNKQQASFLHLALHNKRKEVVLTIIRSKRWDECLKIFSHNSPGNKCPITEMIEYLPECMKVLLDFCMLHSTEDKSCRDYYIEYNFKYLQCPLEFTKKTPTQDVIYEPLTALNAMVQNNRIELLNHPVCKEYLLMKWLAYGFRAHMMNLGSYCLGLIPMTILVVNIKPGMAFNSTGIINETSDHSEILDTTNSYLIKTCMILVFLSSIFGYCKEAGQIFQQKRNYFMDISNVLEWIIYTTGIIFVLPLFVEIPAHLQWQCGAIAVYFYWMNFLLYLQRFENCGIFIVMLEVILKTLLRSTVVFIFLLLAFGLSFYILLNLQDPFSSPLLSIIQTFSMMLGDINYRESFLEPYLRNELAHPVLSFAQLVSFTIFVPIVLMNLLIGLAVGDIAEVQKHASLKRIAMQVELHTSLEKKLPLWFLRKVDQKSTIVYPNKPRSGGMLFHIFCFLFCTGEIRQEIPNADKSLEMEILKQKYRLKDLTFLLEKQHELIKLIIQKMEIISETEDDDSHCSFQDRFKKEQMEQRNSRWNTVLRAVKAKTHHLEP

| Molecule | inhibition at 1 µM (1.0 μM test compound) [%] | inhibition at 10 µM (10.0 μM test compound) [%] | IC50 [nM] | Percentage inhibition at 1.0 μM (1.0 μM test compound) [%] | Percentage inhibition at 10.0 μM (10.0 μM test compound) [%] |
| --- | --- | --- | --- | --- | --- |
| Cc1cc2c(c(=O)n(C)c(=O)n2C)n1CC(=O)Nc1nc(-c2cc(F)c(OCC(C)(C)C)c(F)c2)cs1 [Example 24, N1-{4-[3,5-Difluoro-4-(2,2-dimethylpropoxy)phenyl]-1,3-thiazol-2-yl}-2-(1,3,6-trimethyl-2,4-dioxo-1,2,3,4-tetrahydro-5H-pyrrolo[3,2-d]pyrimidin-5-yl)acetamide] | 93.9 | 99.4 | < 50 |  |  |
| Cn1c(=O)c2c(ccn2CC(=O)Nc2nc(-c3cc(F)c(OCC(C)(C)C)c(F)c3)cs2)n(C)c1=O [Example 8, N-{[4-(2,2-Dimethylpropoxy)-3,5-difluorophenyl]-1,3-thiazol-2-yl}-2-(1,3-dimethyl-2,4-dioxo-1,2,3,4-tetrahydro-5H-pyrrolo[3,2-d]pyrimidin-5-yl)acetamide] | 91.9 | 100 | < 50 |  |  |
| Cn1nc2c(c1CC(=O)Nc1nc(-c3ccc(OC(F)F)c(F)c3)cs1)c(=O)n(C)c(=O)n2C [Example 61, N-{4-[4-(Difluoromethoxy)-3-fluorophenyl]-1,3-thiazol-2-yl}-2-(2,5,7-trimethyl-4,6-dioxo-4,5,6,7-tetrahydro-2H-pyrazolo[3,4-d]pyrimidin-3-yl)acetamide] | 86 | 98.3 | 50 to 100 |  |  |
| Cn1c(=O)c2c(ccn2CC(=O)Nc2nc(-c3ccc(F)c(C(F)(F)F)c3F)cs2)n(C)c1=O [Example 9, 2-(1,3-Dimethyl-2,4-dioxo-1,2,3,4-tetrahydro-5H-pyrrolo[3,2-d]pyrimidin-5-yl)-N-{4-[2,4-difluorophenyl-3-trifluoromethyl]-1,3-thiazol-2-yl}acetamide] | 60.7 | 91.3 |  |  |  |
| Cn1nc2c(c1CC(=O)Nc1nc(-c3ccc(F)c(C(F)(F)F)c3F)cs1)c(=O)n(C)c(=O)n2C [Example 63, N-{4-[2,4-Difluoro-3-(trifluoromethyl)phenyl]-1,3-thiazol-2-yl}-2-(2,5,7-trimethyl-4,6-dioxo-4,5,6,7-tetrahydro-2H-pyrazolo[3,4-d]pyrimidin-3-yl)acetamide] | 95.1 | 99.7 | < 50 |  |  |
| Cn1c(=O)c2c(ccn2CC(=O)Nc2nc(-c3cc(F)c(OCC(F)(F)F)c(F)c3)cs2)n(C)c1=O [Example 11, N-{4-[3,5-Difluoro-4-(2,2,2-trifluoroethoxy)phenyl]-1,3-thiazol-2-yl}-2-(1,3-dimethyl-2,4-dioxo-1,2,3,4-tetrahydro-5H-pyrrolo[3,2-d]pyrimidin-5-yl)acetamide] | 96.3 | 98.1 | < 50 |  |  |
| Cn1c(=O)c2c(cnn2CC(=O)Nc2nc(-c3cc(Cl)c(OCC(C)(C)C)c(Cl)c3)cs2)n(C)c1=O [Example 79, N-{4-[3,5-Dichloro-4-(2,2-dimethylpropoxy)phenyl]-1,3-thiazol-2-yl}-2-(4,6-dimethyl-5,7-dioxo-4,5,6,7-tetrahydro-1H-pyrazolo[4,3-d]pyrimidin-1-yl)acetamide] | 100 | 100 | < 50 |  |  |
| Cn1c(=O)c2c(cnn2CC(=O)Nc2nc(-c3ccc(Cl)cc3)cs2)n(C)c1=O [Example 67, N-[4-(4-Chlorophenyl)-1,3-thiazol-2-yl]-2-(4,6-dimethyl-5,7-dioxo-4,5,6,7-tetrahydro-1H-pyrazolo[4,3-d]pyrimidin-1-yl)acetamide] | 57.6 | 98.4 |  |  |  |
| Cn1nc2c(c1CC(=O)Nc1nc(-c3cccc(C(F)(F)F)c3F)cs1)c(=O)n(C)c(=O)n2C [Example 55, N-{4-[2-Fluoro-3-(trifluoromethyl)phenyl]-1,3-thiazol-2-yl}-2-(2,5,7-trimethyl-4,6-dioxo-4,5,6,7-tetrahydro-2H-pyrazolo[3,4-d]pyrimidin-3-yl)acetamide] | 92.2 | 99.2 | 50 to 100 |  |  |
| Cn1nc2c(c1CC(=O)Nc1nc(-c3ccc(C(F)(F)F)c(F)c3F)cs1)c(=O)n(C)c(=O)n2C [Example 62, N-{4-[2,3-difluoro-4-(trifluoromethyl)phenyl]-1,3-thiazol-2-yl}-2-(2,5,7-trimethyl-4,6-dioxo-4,5,6,7-tetrahydro-2H-pyrazolo[3,4-d]pyrimidin-3-yl)acetamide] | 90.3 | 95.8 | < 50 |  |  |
| Cn1c(=O)c2c(ccn2CC(=O)Nc2nc(-c3ccc(OCC(F)(F)F)c(Br)c3)cs2)n(C)c1=O [Example 23, N-{4-[3-Bromo-4-(2,2,2-trifluoroethoxy)phenyl]-1,3-thiazol-2-yl}-2-(1,3-dimethyl-2,4-dioxo-1,2,3,4-tetrahydro-5H-pyrrolo[3,2-d]pyrimidin-5-yl)acetamide] | 87.4 | 92.2 | 50 to 100 |  |  |
| Cn1c(=O)c2c(cnn2CC(=O)Nc2nc(-c3cc(F)c(OCC(C)(C)C)c(Cl)c3)cs2)n(C)c1=O [Example 80, N-{4-[3-Chloro-4-(2,2-dimethylpropoxy)-5-fluorophenyl]-1,3-thiazol-2-yl}-2-(4,6-dimethyl-5,7-dioxo-4,5,6,7-tetrahydro-1H-pyrazolo[4,3-d]pyrimidin-1-yl)acetamide] | 100 | 100 | < 50 |  |  |
| Cn1c(=O)c2c(ccn2CC(=O)Nc2nc(-c3cc(Cl)c(OCC(C)(C)C)c(Cl)c3)cs2)n(C)c1=O [Example 13, N-{4-[3,5-Dichloro-4-(2,2-dimethylpropoxy)phenyl]-1,3-thiazol-2-yl}-2-(1,3-dimethyl-2,4-dioxo-1,2,3,4-tetrahydro-5H-pyrrolo[3,2-d]pyrimidin-5-yl)acetamide] | 86.5 | 98.8 | 50 to 100 |  |  |
| Cn1nc2c(c1CC(=O)Nc1cc(-c3ccc(Br)cc3)on1)c(=O)n(C)c(=O)n2C [Example 65, N-[5-(4-Bromophenyl)isoxazol-3-yl]-2-(2,5,7-trimethyl-4,6-dioxo-4,5,6,7-tetrahydro-2H-pyrazolo[3,4-d]pyrimidin-3-yl)acetamide] | 12.5 | 24.6 |  |  |  |
| CCN(CC)Cc1cn(CC(=O)Nc2nc(-c3ccc(C(F)(F)F)c(F)c3)cs2)c2c(=O)n(C)c(=O)n(C)c12 [Example 40, N-{4-[3-Fluoro-4-(trifluoromethyl)phenyl]-1,3-thiazol-2-yl}-2-{7-[(diethylamino)methyl]-1,3-dimethyl-2,4-dioxo-1,2,3,4-tetrahydro-5H-pyrrolo[3,2-d]pyrimidin-5-yl}acetamide] | 48.5 | 86.2 |  |  |  |
| N-{4-[3,5-Dichloro-4-isobutoxyphenyl]-1,3-thiazol-2-yl}-2-(4,6-dimethyl-5,7-dioxo-4,5,6,7-tetrahydro-1H-pyrazolo[4,3-d]pyrimidin-1-yl)acetamide [Example 77] |  |  | 50 to 100 | 89.48 | 99.58 |
| Cn1c(=O)c2c(c(Br)cn2CC(=O)Nc2nc(-c3ccc(C(F)(F)F)c(F)c3)cs2)n(C)c1=O [Example 37, 2-(7-Bromo-1,3-dimethyl-2,4-dioxo-1,2,3,4-tetrahydro-5H-pyrrolo[3,2-d]pyrimidin-5-yl)-N-{4-[3-fluoro-4-(trifluoromethyl)phenyl]-1,3-thiazol-2-yl}acetamide] | 52.9 | 95.4 |  |  |  |
| Cc1cn(CC(=O)Nc2nc(-c3cc(F)c(OCC(C)(C)C)c(F)c3)cs2)c2c(=O)n(C)c(=O)n(C)c12 [Example 34, N-{4-[3,5-Difluoro-4-(2,2-dimethylpropoxy)phenyl]-1,3-thiazol-2-yl}-2-(1,3,7-trimethyl-2,4-dioxo-1,2,3,4-tetrahydro-5H-pyrrolo[3,2-d]pyrimidin-5-yl)acetamide] | 88.8 | 97 | > 100 |  |  |
| Cn1nc2c(c1CC(=O)Nc1nc(-c3ccc(C(F)(F)F)cc3F)cs1)c(=O)n(C)c(=O)n2C [Example 56, N-{4-[2-Fluoro-4-(trifluoromethyl)phenyl]-1,3-thiazol-2-yl}-2-(2,5,7-trimethyl-4,6-dioxo-4,5,6,7-tetrahydro-2H-pyrazolo[3,4-d]pyrimidin-3-yl)acetamide] | 96.2 | 98.2 | < 50 |  |  |
| Cn1c(=O)c2c(ccn2CC(=O)Nc2nc(-c3cc(F)c(OCc4ccc(C(F)(F)F)cc4)c(F)c3)cs2)n(C)c1=O [Example 21, 2-(1,3-Dimethyl-2,4-dioxo-1,2,3,4-tetrahydro-5H-pyrrolo[3,2-d]pyrimidin-5-yl)-N-{4-[3,5-difluoro-4-[4-(trifluoromethyl)benzyloxy]phenyl)-1,3-thiazol-2-yl}acetamide] | 11.2 | 16.2 |  |  |  |
| Cc1cn(CC(=O)Nc2nc(-c3ccc(C(F)(F)F)c(F)c3)cs2)c2c(=O)n(C)c(=O)n(C)c12 [Example 35, N-{4-[3-Fluoro-4-(trifluoromethyl)phenyl]-1,3-thiazol-2-yl}-2-(1,3,7-trimethyl-2,4-dioxo-1,2,3,4-tetrahydro-5H-pyrrolo[3,2-d]pyrimidin-5-yl)acetamide] | 64.7 | 96.8 |  |  |  |
| Cn1c(=O)c2c(cnn2CC(=O)Nc2nc(-c3cc(F)c(OC(F)F)c(F)c3)cs2)n(C)c1=O [Example 72, N-{4-[4-(Difluoromethoxy)-3,5-difluorophenyl]-1,3-thiazol-2-yl}-2-(4,6-dimethyl-5,7-dioxo-4,5,6,7-tetrahydro-1H-pyrazolo[4,3-d]pyrimidin-1-yl)acetamide] | 85.9 | 97.7 | > 100 |  |  |
